# Values joined by “and” are separate entries in the source; they are usually repeats but may differ in a detail not shown here. Equal entries are not always repeated.
# Key:
# Assay type in all cases: cell-based
# [1] = test system: Human dermal fibroblasts; experiment: Cytotoxicity (LDH release) on dermal fibroblasts in classical condition; settings: for Cytotoxicity (LDH release), Mean / Cytotoxicity (LDH release), Values: during 24 h after 11 days of culture, normalized by cell number; for Cytotoxicity (LDH release), Values: individual values
# Experimental: Human dermal fibroblasts were isolated from skin tissue by dermis explants seeding in Petri dishes in DMEM-20% FBS for 3 weeks. Dermal fibroblasts were then seeded in 96-well plates and then incubated in different culture conditions described below.
# Different culture conditions were realized in triplicate at least: • Positive control of cytotoxicity: cells in DMEM 1% FBS medium lysed by 0.2% triton at the end of the culture period • Control: cells in DMEM 1% FBS medium • Test: cells in DMEM 1% FBS medium added with test compound 6 and compound 44 of WO2015/140178.
# Cytotoxicity was assessed by the measurement of the lactate dehydrogenase (LDH) released by damaged cells in the culture medium (using the kit CytoTox-One Non-Radioactive Cytotoxicity Assay, G1780, Promega). Cells were treated with 0.2% of triton at the end of the culture to determine the maximal toxicity response. […]
# The results were normalized by cell number, determined by nuclei staining (with DAPI: 4′,6-Diamidino-2-Phenylindole, Dihydrochloride), and were represented in percentage of the lysis positive control. Compounds presenting a level of cytotoxicity below 20% compared to control were considered as non-toxic.
# Quantity of LDH released by cells was normalized by cell number in each culture condition. Data are represented in percentage of the positive control.
# [2] = test system: Normal human epidermal keratinocytes (NHEK); experiment: Lipid peroxidation in NHEK under UV stimulation (C11-fluor probe, flow cytometry); settings: for % Irradiated control (lipid peroxidation) / % Protection (lipid peroxidation) / C11-fluor 1/GMFI Mean (AU) / C11-fluor 1/GMFI (AU) / C11-fluor GMFI (AU): irradiated UVB 300 mJ/cm^2 (+UVA 2.1 J/cm^2); for C11-fluor 1/GMFI (AU) / C11-fluor GMFI (AU): individual replicates
# Experimental: Normal human epidermal keratinocytes were seeded in 48-well plates and cultured in culture medium for 24 hours and then in assay medium for a further 24 hours. The medium was then removed and replaced by assay medium containing or not (irradiated control) the test compounds or the reference (BHA—butylated hydroxyanisole, lipid peroxidation inhibitor—at 100 μM) and the cells were pre-incubated for 24 hours. After pre-incubation, the specific fluorescent probe for the measurement of lipid peroxides (C11-fluor) was added and the cells were incubated for 45 minutes. Then, the medium was removed and replaced by assay medium containing or not (irradiated control and test compound conditions) the reference and the cells were irradiated with UVB (+UVA)−300 mJ/cm^2 (+2.1 J/cm^2). The lamp used was a SOL500 Sun Simulator equipped with an H2 filter (Dr. Hbnle. AG). After irradiation, the medium was removed and replaced by assay medium containing or not (irradiated control) the test compounds or the reference and the cells were incubated for 30 minutes before flow cytometry analysis. A non-irradiated control condition was performed in parallel. All experimental conditions were performed in triplicate.
# At the end of the incubation, in each well, the cells were trypsinized and transferred into specific tubes for the analysis of C11-fluor fluorescence intensity using a BD FACSVerse™ flow cytometer (acquisition of 2000 to 5000 events per tube). The C11-fluor fluorescent probe is a lipid analogue which integrates cell membranes. As the fluorescence intensity of this probe is decreased with oxidation, it is inversely proportional to the lipid peroxidation. In order to facilitate the result interpretation, the lipid peroxidation was expressed using the value “1/fluorescence intensity” in order to have a direct proportionality between the induction of lipid peroxidation and the values of “% of irradiated control”.
# Results presented in Table 24 are expressed as fluorescence intensity and as […] of protection compared to the control.
# [3] = test system: Hyaluronic Acid (HA); experiment: Hyaluronic acid secretion in coculture of human aged fibroblasts and mature adipocytes (ELISA); settings: for secretion of HA, normalized by fibroblasts number, in percentage of the coculture control condition, Values (%): individual replicates
# Source text: In order to evaluate its effect on fibroblast matrix and its anti-inflammatory properties, the effect of compound 6 has been tested on an adipocytes-aged fibroblasts coculture model, mimicking the interactions between dermis and hypodermis in the skin and allowed to explore in parallel the biological effects of the products on two cellular targets.
# • Experimental model: co-culture of human mature adipocytes cultured in 3D and human dermal fibroblasts cultured in 2D (AM3D-FB2D co-culture). This experimental model of AM3D-FB2D co-culture mimicked the interactions between dermis and hypodermis in the skin and allowed to explore in parallel the biological effects of the products on two cellular targets. • Donor characteristics: This study was performed on mature adipocytes and fibroblasts from two different donors (one donor for mature adipocytes and another donor for dermal fibroblasts). • Fibroblasts donor=person, BMI=28 kg/m^2 • Adipocytes donor=person, BMI=21.4 kg/m^2 • Treatment procedure: compound 6 was added to the co-culture medium daily for up to 6 days
# Dermal fibroblasts were seeded in DMEM 10% FBS at 10000 cells/well. The day after, the adipocytes capsules of 50 μl were added in suspension above the fibroblasts and the medium was changed and replaced by a specific culture medium for the co-culture AM3D-FB2D. The formation of adipocytes capsules followed an internal standardized protocol. Briefly, the fully mature adipocytes were isolated from the hypodermis after digestion by collagenase. The isolated adipocytes were then washed with a wash buffer and encapsulated in a peptidic hydrogel to form 3D adipocytes capsules of 50 μl in size. Cells were incubated at 37° C. and 5% CO2 overnight for stabilization. Treatments were initiated at DO with a medium change at DO, D2, D3 and D5. The entire culture media of 24 h incubation was collected at D3 and D6, before being centrifugated and stored at −80° C. Each culture condition was done in triplicate.
# The biochemical analyses on culture media were performed via ELISA using specific kits according to the manufacturer's recommendations: IL-6 (Duoset DY206, R&D Systems), and Hyaluronic Acid (HA) (Duoset, DY3614-05, R&D Systems and Procollagen I (Duoset, DY6220-05, R&D Systems) The results of HA and Procollagen I were normalized by fibroblasts cell number regarding the fact that these molecules were secreted mainly by fibroblasts. All the biochemical results were represented in percentage of the control condition.
# To evaluate the effect of the compound 6 on fibroblast's matrix, the extracellular concentrations of Hyaluronic Acid (HA), that is secreted only by the fibroblasts, were measured at D3 and D6.
smiles,measurement,setting,value
N[C@H]1CCCN(CC(F)(F)[C@]2(O)O[C@H](CO)[C@H](O)[C@H](O)[C@H]2O)C1=O [Compound 6],"Cytotoxicity (LDH release), Mean",[1]; 0.1 mg/ml,6.7 percentage of positive control
same,"Cytotoxicity (LDH release), Values",[1]; 0.1 mg/ml,5.9 percentage of positive control and 4.8 percentage of positive control and 6.5 percentage of positive control and 9.8 percentage of positive control
same,"Cytotoxicity (LDH release), Mean",[1]; 0.5 mg/ml,5.6 percentage of positive control
same,"Cytotoxicity (LDH release), Values",[1]; 0.5 mg/ml,7.1 percentage of positive control and 6.6 percentage of positive control and 3.1 percentage of positive control and 5.7 percentage of positive control
same,Toxicity on dermal fibroblasts,"[1]; 2 mg/ml, 0.5 mg/ml and 0.1 mg/ml",No toxicity
same,"Cytotoxicity (LDH release), Mean",[1]; 2 mg/ml,5.1 percentage of positive control
same,"Cytotoxicity (LDH release), Values",[1]; 2 mg/ml,4.2 percentage of positive control and 5.1 percentage of positive control and 5.3 percentage of positive control and 6.0 percentage of positive control
same,Protective effect on dermal fibroblasts under classical condition,[1]; all concentrations,strong protective effect
same,% Irradiated control (lipid peroxidation),[2]; 1 mg/ml,66%
same,% Protection (lipid peroxidation),[2]; 1 mg/ml,37%
same,C11-fluor 1/GMFI Mean (AU),[2]; 1 mg/ml,5.6E−04 AU
same,C11-fluor 1/GMFI (AU),[2]; 1 mg/ml,4.7E−04 AU and 5.9E−04 AU and 6.2E−04 AU
same,C11-fluor GMFI (AU),[2]; 1 mg/ml,2118 AU and 1705 AU and 1608 AU
same,% Irradiated control (lipid peroxidation),[2]; 3 mg/ml,65%
same,% Protection (lipid peroxidation),[2]; 3 mg/ml,38%
same,C11-fluor 1/GMFI Mean (AU),[2]; 3 mg/ml,5.6E−04 AU
same,C11-fluor 1/GMFI (AU),[2]; 3 mg/ml,4.7E−04 AU and 5.1E−04 AU and 7.0E−04 AU
same,C11-fluor GMFI (AU),[2]; 3 mg/ml,2143 AU and 1970 AU and 1426 AU
same,Protection on lipid peroxidation (compared to the control),"[2]; NHEK irradiated with UVB (+UVA) 300 mJ/cm2 (+2.1 J/cm2), concentration not given",38%
same,"HA secretion, normalized by fibroblasts number, % of the control","[3]; 1 mg/ml, 3 days of treatment",140%
same,"HA secretion, normalized by fibroblasts number, % of the control","[3]; 1 mg/ml, 6 days of treatment",189%
same,"HA secretion, normalized by fibroblasts number, % of the control","[3]; 2 mg/ml, 6 days of treatment",225%
same,"HA secretion, normalized by fibroblasts number, % of the control","[3]; 3 mg/ml, 6 days of treatment",164%
same,"secretion of HA, normalized by fibroblasts number, in percentage of the coculture control condition, Mean (%)","[3]; D3, 1 mg/ml",140%
same,"secretion of HA, normalized by fibroblasts number, in percentage of the coculture control condition, Values (%)","[3]; D3, 1 mg/ml",127% and 123% and 169%
same,"secretion of HA, normalized by fibroblasts number, in percentage of the coculture control condition, Mean (%)","[3]; D3, 2 mg/ml",90%
same,"secretion of HA, normalized by fibroblasts number, in percentage of the coculture control condition, Values (%)","[3]; D3, 2 mg/ml",96% and 93% and 80%
same,"secretion of HA, normalized by fibroblasts number, in percentage of the coculture control condition, Mean (%)","[3]; D3, 3 mg/ml",85%
same,"secretion of HA, normalized by fibroblasts number, in percentage of the coculture control condition, Values (%)","[3]; D3, 3 mg/ml",83% and 75% and 98%
same,"secretion of HA, normalized by fibroblasts number, in percentage of the coculture control condition, Mean (%)","[3]; D6, 1 mg/ml",189%
same,"secretion of HA, normalized by fibroblasts number, in percentage of the coculture control condition, Values (%)","[3]; D6, 1 mg/ml",172% and 157% and 237%
same,"secretion of HA, normalized by fibroblasts number, in percentage of the coculture control condition, Mean (%)","[3]; D6, 2 mg/ml",225%
same,"secretion of HA, normalized by fibroblasts number, in percentage of the coculture control condition, Values (%)","[3]; D6, 2 mg/ml",240% and 233% and 203%
same,"secretion of HA, normalized by fibroblasts number, in percentage of the coculture control condition, Mean (%)","[3]; D6, 3 mg/ml",164%
same,"secretion of HA, normalized by fibroblasts number, in percentage of the coculture control condition, Values (%)","[3]; D6, 3 mg/ml",121% and 213% and 159%
